Assays:
[1] = compound: T1, CN(C)C(=O)c1cc2cnc(Nc3ccc(N4CCNCC4)cn3)nc2n1C1CCCC1 [LEE011/Ribociclib]
[2] = compound: Cc1nn(C)c(COc2ccc(N3CCN(S(=O)(=O)N(C)C)CC3)cc2)c1-c1cccc2c(CCCOc3cccc4ccccc34)c(C(=O)O)n(CCN3CCOCC3)c12
[3] = compound: CCc1cnn2c(NCc3ccc[n+]([O-])c3)cc(N3CCCC[C@H]3CCO)nc12
[4] = compound: COc1cccc2c1C(=O)c1c(O)c3c(c(O)c1C2=O)C[C@@](O)(C(=O)CO)C[C@@H]3O[C@H]1C[C@H](N)[C@H](O)[C@H](C)O1 [Doxorubicin]
[5] = compound: CS(=O)(=O)N1CCN(Cc2cc3nc(-c4cccc5[nH]ncc45)nc(N4CCOCC4)c3s2)CC1 [Pictilisib/GDC0941]
[6] = compound: Cc1cc(Nc2ncc(Cl)c(Nc3ccccc3S(=O)(=O)C(C)C)n2)c(OC(C)C)cc1C1CCNCC1 [Ceritinib/LDK378]
[7] = compound: CN(C)C/C=C/C(=O)Nc1ccc(C(=O)Nc2cccc(Nc3ncc(Cl)c(-c4c[nH]c5ccccc45)n3)c2)cc1 [THZ1]; experiment: increase in dead-cell fraction, 72 h; higher = more death;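 further: breast cancer cell lines in 384-well plates, stained with Hoechst plus LIVE/DEAD far red dye and imaged, cells above an LDR intensity threshold counted dead, Hoechst-negative corpses included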
[8] = compound: CC(=O)c1c(C)c2cnc(Nc3ccc(N4CCN(CCOCCOCCOCCNC(=O)COc5cccc6c5C(=O)N(C5CCC(=O)NC5=O)C6=O)CC4)cn3)nc2n(C2CCCC2)c1=O [BSJ-03-123]; experiment: as above
[9] = compound: CCN1CCN(Cc2ccc(Nc3ncc(F)c(-c4cc(F)c5nc(C)n(C(C)C)c5c4)n3)nc2)CC1; experiment: as above
[10] = compound: T1, LEE011/Ribociclib; experiment: as above
[11] = compound: CC(=O)c1c(C)c2cnc(Nc3ccc(N4CCNCC4)cn3)nc2n(C2CCCC2)c1=O; experiment: as above
[12] = compound: CCOc1cc2ncc(C#N)c(Nc3ccc(OCc4ccccn4)c(Cl)c3)c2cc1NC(=O)/C=C/CN(C)C [Neratinib/HKI272]; experiment: as above
[13] = compound: CCc1cnn2c(NCc3ccc[n+]([O-])c3)cc(N3CCCC[C@H]3CCO)nc12; experiment: as above
[14] = compound: C=CC(=O)Nc1ccc(C(=O)Nc2[nH]nc3c2CN(C(=O)N[C@H](CN(C)C)c2ccccc2)C3(C)C)cc1 [YKL-5-124]; experiment: as above
[15] = compound: CN(C)C/C=C/C(=O)Nc1ccc(C(=O)N2CCC[C@@H](Nc3ncc(Cl)c(-c4c[nH]c5ccccc45)n3)C2)cc1 [THZ531]; experiment: as above
[16] = compound: CN1CC[C@H](c2c(O)cc(O)c3c(=O)cc(-c4ccccc4Cl)oc23)[C@H](O)C1 [Flavopiridol]; experiment: as above
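Wherever GR50, 72 h is given: breast cancer and non-malignant breast epithelial cell lines, Deep Dye Drop or Dye Drop imaging, nine half-log doses, GR normalized to time-zero plates and DMSO-only controls.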

PDXHCI002
GR50, 72 h [1]: > 10 µM | GR50, 72 h [2]: > 10 µM | GR50, 72 h [3]: 0.0122 µM | GR50, 72 h [4]: 0.00405 µM | GR50, 72 h [5]: 2.25 µM | GR50, 72 h [6]: 0.338 µM | increase in dead-cell fraction ([7]; 0.0001 µM): -0.0106 | increase in dead-cell fraction ([7]; 0.0003162 µM): -0.015 | increase in dead-cell fraction ([7]; 0.001 µM): -0.01 | increase in dead-cell fraction ([7]; 0.003162 µM): -0.0152 | increase in dead-cell fraction ([7]; 0.01 µM): 0.0629 | increase in dead-cell fraction ([7]; 0.03162 µM): 0.221 | increase in dead-cell fraction ([7]; 0.1 µM): 0.272 | increase in dead-cell fraction ([7]; 0.3162 µM): 0.269 | increase in dead-cell fraction ([7]; 1 µM): 0.282 | increase in dead-cell fraction ([8]; 0.001 µM): -0.0304 | increase in dead-cell fraction ([8]; 0.003162 µM): -0.0395 | increase in dead-cell fraction ([8]; 0.01 µM): -0.0247 | increase in dead-cell fraction ([8]; 0.03162 µM): 0.0116 | increase in dead-cell fraction ([8]; 0.1 µM): 0.0131 | increase in dead-cell fraction ([8]; 0.3162 µM): 0.02 | increase in dead-cell fraction ([8]; 1 µM): 0.121 | increase in dead-cell fraction ([8]; 3.162 µM): 0.127 | increase in dead-cell fraction ([8]; 10 µM): 0.299 | increase in dead-cell fraction ([9]; 0.001 µM): -0.0112 | increase in dead-cell fraction ([9]; 0.003162 µM): -0.0293 | increase in dead-cell fraction ([9]; 0.01 µM): -0.0317 | increase in dead-cell fraction ([9]; 0.03162 µM): -0.0292 | increase in dead-cell fraction ([9]; 0.1 µM): -0.0036 | increase in dead-cell fraction ([9]; 0.3162 µM): 0.0233 | increase in dead-cell fraction ([9]; 1 µM): 0.161 | increase in dead-cell fraction ([9]; 3.162 µM): 0.61 | increase in dead-cell fraction ([9]; 10 µM): 0.778 | increase in dead-cell fraction ([10]; 0.001 µM): -0.0323 | increase in dead-cell fraction ([10]; 0.003162 µM): -0.0237 | increase in dead-cell fraction ([10]; 0.01 µM): -0.0167 | increase in dead-cell fraction ([10]; 0.03162 µM): -0.0095 | increase in dead-cell fraction ([10]; 0.1 µM): -0.0015 | increase in dead-cell fraction ([10]; 0.3162 µM): -0.0029 | increase in dead-cell fraction ([10]; 1 µM): -0.0185 | increase in dead-cell fraction ([10]; 3.162 µM): 0.0196 | increase in dead-cell fraction ([10]; 10 µM): 0.0853 | increase in dead-cell fraction ([11]; 0.0003162 µM): -0.0007 | increase in dead-cell fraction ([11]; 0.001 µM): 0.0001 | increase in dead-cell fraction ([11]; 0.003162 µM): -0.0134 | increase in dead-cell fraction ([11]; 0.01 µM): -0.0207 | increase in dead-cell fraction ([11]; 0.03162 µM): -0.015 | increase in dead-cell fraction ([11]; 0.1 µM): -0.0124 | increase in dead-cell fraction ([11]; 0.3162 µM): -0.0203 | increase in dead-cell fraction ([11]; 1 µM): -0.0173 | increase in dead-cell fraction ([11]; 3.162 µM): -0.0092 | increase in dead-cell fraction ([12]; 0.0003162 µM): 0.0061 | increase in dead-cell fraction ([12]; 0.001 µM): -0.001 | increase in dead-cell fraction ([12]; 0.003162 µM): -0.0049 | increase in dead-cell fraction ([12]; 0.01 µM): -0.0162 | increase in dead-cell fraction ([12]; 0.03162 µM): 0.0001 | increase in dead-cell fraction ([12]; 0.1 µM): -0.0122 | increase in dead-cell fraction ([12]; 0.3162 µM): 0.0151 | increase in dead-cell fraction ([12]; 1 µM): 0.0548 | increase in dead-cell fraction ([12]; 3.162 µM): 0.31 | increase in dead-cell fraction ([13]; 0.0001 µM): -0.0076 | increase in dead-cell fraction ([13]; 0.0003162 µM): -0.0064 | increase in dead-cell fraction ([13]; 0.001 µM): -0.0055 | increase in dead-cell fraction ([13]; 0.003162 µM): -0.0087 | increase in dead-cell fraction ([13]; 0.01 µM): -0.0047 | increase in dead-cell fraction ([13]; 0.03162 µM): 0.451 | increase in dead-cell fraction ([13]; 0.1 µM): 0.504 | increase in dead-cell fraction ([13]; 0.3162 µM): 0.458 | increase in dead-cell fraction ([13]; 1 µM): 0.44 | increase in dead-cell fraction ([14]; 0.001 µM): 0.156 | increase in dead-cell fraction ([14]; 0.003162 µM): 0.144 | increase in dead-cell fraction ([14]; 0.01 µM): 0.185 | increase in dead-cell fraction ([14]; 0.03162 µM): 0.172 | increase in dead-cell fraction ([14]; 0.1 µM): 0.186 | increase in dead-cell fraction ([14]; 0.3162 µM): 0.234 | increase in dead-cell fraction ([14]; 1 µM): 0.186 | increase in dead-cell fraction ([14]; 3.162 µM): 0.255 | increase in dead-cell fraction ([14]; 10 µM): 0.182 | increase in dead-cell fraction ([15]; 0.0001 µM): -0.0252 | increase in dead-cell fraction ([15]; 0.0003162 µM): -0.029 | increase in dead-cell fraction ([15]; 0.001 µM): -0.0123 | increase in dead-cell fraction ([15]; 0.003162 µM): 0.0054 | increase in dead-cell fraction ([15]; 0.01 µM): 0.0146 | increase in dead-cell fraction ([15]; 0.03162 µM): 0.0278 | increase in dead-cell fraction ([15]; 0.1 µM): 0.241 | increase in dead-cell fraction ([15]; 0.3162 µM): 0.379 | increase in dead-cell fraction ([15]; 1 µM): 0.263 | increase in dead-cell fraction ([16]; 0.0001 µM): -0.0222 | increase in dead-cell fraction ([16]; 0.0003162 µM): 0.0027 | increase in dead-cell fraction ([16]; 0.001 µM): -0.0057 | increase in dead-cell fraction ([16]; 0.003162 µM): 0.0089 | increase in dead-cell fraction ([16]; 0.01 µM): 0.0079 | increase in dead-cell fraction ([16]; 0.03162 µM): 0 | increase in dead-cell fraction ([16]; 0.1 µM): 0.0552 | increase in dead-cell fraction ([16]; 0.3162 µM): 0.306 | increase in dead-cell fraction ([16]; 1 µM): 0.294

— the supplement of paper PMC9663587
